Test results from patent US20250154212A1, “METHOD OF DISRUPTING MEMORY AND LIPOPEPTIDE FOR USE IN SUCH METHOD” (The Research Foundation for The State University of New York, priority 2023, published 2025).
pIC50: −log10 of the molar value. “Also recorded” adds a separate entry of the source. Where no end group is shown, it is not given here. The star is where a group is joined. Myristoyl = CCCCCCCCCCCCCC(=O)*

Target: T1, KIBRA-PKMζ interaction (Homo sapiens, UniProt Q05513)
T1 construct: expressed in transfected cells; host or cells: HEK293T
T1 sequence (Q05513 1-409 isoform Q05513-2): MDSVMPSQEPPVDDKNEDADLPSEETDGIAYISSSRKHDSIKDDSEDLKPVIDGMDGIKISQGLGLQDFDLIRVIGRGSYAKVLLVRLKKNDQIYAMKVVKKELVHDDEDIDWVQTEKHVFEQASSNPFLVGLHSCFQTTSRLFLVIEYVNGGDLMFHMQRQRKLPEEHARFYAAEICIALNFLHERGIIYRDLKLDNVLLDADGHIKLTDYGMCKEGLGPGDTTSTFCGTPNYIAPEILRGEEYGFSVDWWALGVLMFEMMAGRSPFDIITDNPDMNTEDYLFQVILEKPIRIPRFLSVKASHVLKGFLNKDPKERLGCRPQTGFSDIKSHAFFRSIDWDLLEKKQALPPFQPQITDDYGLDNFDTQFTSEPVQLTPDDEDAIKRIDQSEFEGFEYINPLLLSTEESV
Test: BiFC (split-Venus) assay of KIBRA-PKMζ interaction in transfected HEK293T cells
Assay type: cell-based
Settings: for effect on KIBRA-PKMζ interaction/dimerization (BiFC): 10 μM
Protocol: KIBRA-PKMζ BiFC was performed as previously described (28), using pVen1-FLAG-KIBRA and pVen2-HA-PKMζ, in which PKMζ was cloned between EcoR1 and BamH1 sites. The constructs pVen1 and pVen2 encode the N-terminus (amino acids 1-154) and C-terminus (amino acids 155-238) of the Venus protein, respectively, and the Venus fragments were on the N-terminal of the fusion proteins. pVen2-HA-PKMζ[PKCι/λ-P291Q;F297S] was generated by site-directed mutagenesis using forward-cctggagAagcAAatceggatcccccggtCcctgtccgte and reverse-gacggacaggGaccgggggatccggatTTgctTctccagg primers and the QuickChange II XL Site-Directed Mutagenesis Kit (Agilent Technologies), following manufacturer's instructions. Additional pVen2-HA-PKC isoforms and pVen2-HA-CaMKIIα in the pVen2-HA vector were generated by cloning the N-terminus of the coding sequence of each kinase (table S1) to obtain an in-frame fusion at the C-terminus of the pVen2-HA. Human versions of KIBRA and kinases were used, and all PCR amplified sequences and constructs were verified by DNA sequencing.
HEK293T cells were cultured in Dulbecco's Modified Eagle's Medium supplemented with 10% heat-inactivated fetal bovine serum, 100 U/ml penicillin, […] streptomycin, 2 mM glutamine, and 10 mM HEPES in a T75 tissue culture flask with canted neck and ventilated cap. Twenty-four hours prior to transfection, 1×10^5 HEK293T cells in 1 ml of media were plated on poly-D-lysine-treated coverslips in 24-well plates. One hour prior to transfection, 0.5 ml of the media was removed from each well, and ζ-stat or K-ZAP was added to the media that had been removed. The remaining media in each well was then discarded and substituted with the 0.5 ml pre-conditioned media containing ζ-stat or K-ZAP at designated concentrations. For transfection a total of 50 ng of DNA was delivered to each well using Lipofectamine 3000 (Invitrogen) and OptiMEM 1× reduced serum medium (Invitrogen) at a plasmid-to-plasmid ratio of 1:1. The amount of transfected DNA was optimized to produce relatively low concentrations of proteins during overexpression. […]

Molecule | effect on KIBRA-PKMζ interaction/dimerization (BiFC) (listed as z-stat) | pIC50 (dose-response curve, n's=4, read-out: IC50 for inhibition of KIBRA-PKMζ interaction (BiFC)) | effect on KIBRA-PKMζ interaction/dimerization (BiFC)
O=S(=O)(O)c1cc(O)c2c(S(=O)(=O)O)cc(S(=O)(=O)O)cc2c1 [ζ-stat, 1-naphthol-3,6,8-trisulphonic acid] | inhibits KIBRA interaction with PKMz; also recorded: decreases BIFC | ~6.00 | –
myr-N-FVRNSLERRSVRMKRPS-C (Myristoyl-FVRNSLERRSVRMKRPS) [K-ZAP] | – | – | inhibits PKMz-KIBRA dimerization
